≈ marks a conversion by molar mass, not a printed value.
Columns and labels:
[1] = Selectivity index, ratio of CC50 for human MRC5 cells to MIC for isoniazid-resistant Mycobacterium tuberculosis MYC5165; format: toxicity, cell-based; conditions: read-out: Selectivity Index
[2] = test system: Mycobacterium tuberculosis; experiment: Antimycobacterial activity against isoniazid-resistant Mycobacterium tuberculosis MYC5165 after 6 days by MTT assay; format: functional, organism-based; conditions: MYC5165, 144 h
[3] = test system: Mycobacterium tuberculosis; experiment: Ratio of isoniazid MIC to compound MIC for isoniazid-resistant Mycobacterium tuberculosis MYC5165; format: functional
[4] = test system: Mycobacterium tuberculosis; experiment: Ratio of CX1 MIC to compound MIC for isoniazid-resistant Mycobacterium tuberculosis MYC5165; format: functional
[5] = test system: Mycobacterium tuberculosis; experiment: Ratio of streptomycin MIC to compound MIC for isoniazid-resistant Mycobacterium tuberculosis MYC5165; format: functional

SMILES	selectivity ratio [1]	MIC [2] [µM]	Ratio [3]	IC50 ([2]; read-out: IC50) [nM]	Ratio [4]	Ratio [5]	IC50 [2] [nM]
N=C(N)NCCc1cc2c(O)c(c1)Cc1cc(CCNC(=N)N)cc(c1O)Cc1cc(CCNC(=N)N)cc(c1O)Cc1cc(CCNC(=N)N)cc(c1O)C2	> 256	0.8 (≈ 0.612 µg/mL)					
N=C(N)NCCc1ccc(OCc2ccccc2COc2ccc(CCNC(=N)N)cc2)cc1.O=C(O)C(F)(F)F	45	3.1	4	900			
N=C(N)NCCc1ccc(OCc2cccc(COc3ccc(CCNC(=N)N)cc3)c2)cc1.O=C(O)C(F)(F)F	62	0.8	16	300	16		
N=C(N)NCCc1ccc(OCc2ccc(COc3ccc(CCNC(=N)N)cc3)cc2)cc1.O=C(O)C(F)(F)F	38	0.8	60	200	16		
N=C(N)NCCc1ccc(OCc2cc(COc3ccc(CCNC(=N)N)cc3)cc(COc3ccc(CCNC(=N)N)cc3)c2)cc1.O=C(O)C(F)(F)F	198	0.2	>125			4	
N=C(N)NCCc1ccc(OCc2cc(COc3ccc(CCNC(=N)N)cc3)c(COc3ccc(CCNC(=N)N)cc3)cc2COc2ccc(CCNC(=N)N)cc2)cc1.O=C(O)C(F)(F)F	377	0.1	>125	30			
O=C(O)c1cn(C2CC2)c2cc(N3CCNCC3)c(F)cc2c1=O [CIPROFLOXACIN]		2.5 (≈ 0.828 µg/mL)					1800
NNC(=O)c1ccncc1 [ISONIAZID]	> 6	12.5 (≈ 1.71 µg/mL)		650			
CN[C@@H]1[C@H](O[C@H]2[C@H](O[C@H]3[C@H](O)[C@@H](O)[C@H](N=C(N)N)[C@@H](O)[C@@H]3N=C(N)N)O[C@@H](C)[C@]2(O)C=O)O[C@@H](CO)[C@H](O)[C@H]1O [STREPTOMYCIN]		2.7 (≈ 1.57 µg/mL)					
